# Measured values as given in US20040234610A1, “Medical device and method for inhalation of aerosolized drug with heliox” (priority 2001, published 2004).
# Columns and labels:
# [1] = system: adult patients with severe acute exacerbation of asthma; assay: Randomized study, albuterol nebulized with heliox 80:20 vs oxygen (control) through semi-closed system, FEV1 spirometry; type: in vivo, human
# Excerpt: Forty-five patients were randomized to receive albuterol nebulized with oxygen (control) versus heliox. At baseline, demographics, outpatient asthma medications, vital signs, oxygen saturation and forced expiratory volume in one second (FEV1) were not different between the two groups. Three consecutive albuterol treatments were given to each group.
# The study subjects were adult patients who presented to the Emergency Department at the University of Chicago Medical Center for a severe acute exacerbation of asthma. The study was approved by the Institutional Review Board and all patients enrolled gave written informed consent before beginning the study. Patients 50 years of age or under meeting American Thoracic Society criteria for the diagnosis of asthma were eligible. To assure that only those with severe persistent asthma were studied, only those patients with baseline forced expiratory volume in one second (FEV1) less than fifty percent predicted were enrolled in the study.
# The heliox delivery system consisted of a facemask connected to a Y-piece with the nebulizer (Airlife™ Misty-Neb™ Nebulizer) on one limb and a non-rebreather bag on the other limb (as shown in FIG. 1). Heliox flow to the nebulizer was set at 10 liters/minute (via an oxygen calibrated flow meter thus equivalent to 18 L/min Heliox flow). A separate flow of 10 liters/minute of heliox (via an oxygen calibrated flow meter thus equivalent to 18 L/min Heliox flow) was delivered to the non-rebreather bag. […] Each treatment continued until the nebulizer was dry—a period of approximately ten minutes, followed by a fifteen minute washout period. The total time for the study was approximately 90 minutes. Corticosteroid therapy for asthma exacerbations was directed by the emergency room physicians, who were not directly involved in the study.
# To assure its accuracy for the purpose of this study, the spirometer was tested every other week using a three liter syringe. In addition, the accuracy of FEV, recordings was tested by having subjects perform forced expiratory maneuvers through the portable spirometer at varying flow rates while it was in-line with a Medical Graphics 1070 pulmonary function testing system. (This system was calibrated daily.) This test was also performed every other week for the first three months of the study and monthly thereafter.
# Patients performed a minimum of three forced expiratory maneuvers with values recorded according to the American Thoracic Society recommendations (American Thoracic Society: Standardization of spirometry—1994 update, Am. J. Respir. Crit. Care Med. 152:1107-36 (1995)). All spirometric measurements were made by investigators who were blinded to the gas used for albuterol nebulization. […] Patients were not told explicitly which treatment limb they were randomized to; however, because of potential voice changes while breathing heliox, it was not possible to assure that patients were blinded to which therapy they received.
# Demographic data, chronic asthma medications, emergency room corticosteroid administration, vital signs (heart rate, mean arterial pressure, respiratory rate), oxygen saturation by pulse oximetry, emergency room length of stay and hospital admissions from the emergency room were recorded for all patients. Data are expressed as mean±SD when normally distributed and median (interquartile range) when not normally distributed. Interval data were compared using a two-tailed Student's t test or Mann Whitney U test according to normality of distribution, categorical data were compared using Chi square or Fisher Exact test when appropriate. […] The Student-Newman-Keuls test was used to compare differences between heliox and control groups after each nebulization treatment when appropriate. […] A 25% difference in percent change in FEV1 between the control and heliox groups was considered clinically important. […]
# [2] = Nebulized particle size distribution by Anderson Cascade Impactor, Y design, drug suspension and different heliox flow rates; type: physicochemical
# Experimental: Additional tests were performed with the ACI described in Example 3 in order to assess the device's ability to nebulize a liquid drug suspension and to assess various heliox flow rate combinations. […]
# asthma patients = assay: Pilot study, albuterol nebulized with heliox vs oxygen through open mouthpiece and T-piece system, spirometry; type: in vivo, human; settings: open mouthpiece and T-piece adapter system
# Experimental: A pilot study was conducted using an open system, including a mouthpiece and T-piece adapter ([…], Allegiance Healthcare Corp., McGaw Park, Ill.), to nebulize albuterol.
# [3] = 6-6 lpm heliox (nebulizer-side port)
# [4] = 10-10 lpm heliox (nebulizer-side port)
# [5] = 10-18 lpm heliox (nebulizer-side port)
# [6] = 18-0 lpm heliox (nebulizer-side port)
# [7] = 18-10 lpm heliox (nebulizer-side port)
# [8] = trial 6-6: heliox 6 L/min nebulizer, 6 L/min side port
# [9] = trial 10-10: heliox 10 L/min nebulizer, 10 L/min side port
# [10] = trial 10-18: heliox 10 L/min nebulizer, 18 L/min side port
# [11] = trial 18-0: heliox 18 L/min nebulizer, 0 L/min side port
# [12] = trial 18-10: heliox 18 L/min nebulizer, 10 L/min side port
smiles,measurement,setting,value
CC(C)(C)NCC(O)c1ccc(O)c(CO)c1 (stereo not drawn) [albuterol],median percent change in FEV1 from baseline,"[1]; control group (nebulized with oxygen 10 L/min), after albuterol treatment 1",14.6%
same,median percent change in FEV1 from baseline,"[1]; control group (oxygen), after treatment 2",22.7%
same,median percent change in FEV1 from baseline,"[1]; control group (oxygen), after treatment 3",26.6%
same,median percent change in FEV1 from baseline,"[1]; heliox group (nebulized with heliox 80:20), after albuterol treatment 1, P=0.007 vs control",32.4%
same,median percent change in FEV1 from baseline,"[1]; heliox group, after treatment 2, P=0.007 vs control",51.5%
same,median percent change in FEV1 from baseline,"[1]; heliox group, after treatment 3, P=0.016 vs control",65.1%
same,0.7 ≦ Mean Fraction < 5.8 μm,[2]; [3],0.755
same,Mean Fraction < 0.7 μm,[2]; [3],0.112
same,Mean Fraction ≧ 5.8 μm,[2]; [3],0.134
same,0.7 ≦ Mean Fraction < 5.8 μm,[2]; [4],0.773
same,Mean Fraction < 0.7 μm,[2]; [4],0.159
same,Mean Fraction ≧ 5.8 μm,[2]; [4],0.068
same,0.7 ≦ Mean Fraction < 5.8 μm,[2]; [5],0.626
same,Mean Fraction < 0.7 μm,[2]; [5],0.306
same,Mean Fraction ≧ 5.8 μm,[2]; [5],0.068
same,0.7 ≦ Mean Fraction < 5.8 μm,[2]; [6],0.658
same,Mean Fraction < 0.7 μm,[2]; [6],0.224
same,Mean Fraction ≧ 5.8 μm,[2]; [6],0.118
same,0.7 ≦ Mean Fraction < 5.8 μm,[2]; [7],0.609
same,Mean Fraction < 0.7 μm,[2]; [7],0.317
same,Mean Fraction ≧ 5.8 μm,[2]; [7],0.075
same,"Fraction, Adapter",[2]; [8],0.033
same,"Fraction, Collar",[2]; [8],0.034
same,"Fraction, Filter (cut size <0.40 μm)",[2]; [8],0.045
same,"Fraction, Stage 0 (cut size 9.00 μm, midpt 10.70 μm)",[2]; [8],0.023
same,"Fraction, Stage 1 (cut size 5.80 μm, midpt 7.22 μm)",[2]; [8],0.015
same,"Fraction, Stage 2 (cut size 4.70 μm, midpt 5.22 μm)",[2]; [8],0.013
same,"Fraction, Stage 3 (cut size 3.30 μm, midpt 3.94 μm)",[2]; [8],0.042
same,"Fraction, Stage 4 (cut size 2.10 μm, midpt 2.63 μm)",[2]; [8],0.171
same,"Fraction, Stage 6 (cut size 0.70 μm, midpt 0.88 μm)",[2]; [8],0.130
same,"Fraction, Stage 7 (cut size 0.40 μm, midpt 0.53 μm)",[2]; [8],0.067
same,"Fraction, Tee Piece",[2]; [8],0.015
same,"Fraction, Throat (USP) (cut size >9.00 μm, midpt 24.49 μm)",[2]; [8],0.013
same,"Fraction, Adapter",[2]; [9],0.018
same,"Fraction, Collar",[2]; [9],0.018
same,"Fraction, Filter (cut size <0.40 μm)",[2]; [9],0.053
same,"Fraction, Stage 0 (cut size 9.00 μm, midpt 10.70 μm)",[2]; [9],0.012
same,"Fraction, Stage 1 (cut size 5.80 μm, midpt 7.22 μm)",[2]; [9],0.011
same,"Fraction, Stage 2 (cut size 4.70 μm, midpt 5.22 μm)",[2]; [9],0.002
same,"Fraction, Stage 4 (cut size 2.10 μm, midpt 2.63 μm)",[2]; [9],0.171
same,"Fraction, Stage 6 (cut size 0.70 μm, midpt 0.88 μm)",[2]; [9],0.202
same,"Fraction, Stage 7 (cut size 0.40 μm, midpt 0.53 μm)",[2]; [9],0.106
same,"Fraction, Tee Piece",[2]; [9],0.009
same,"Fraction, Throat (USP) (cut size >9.00 μm, midpt 24.49 μm)",[2]; [9],0.002
same,"Fraction, Adapter",[2]; [10],0.015
same,"Fraction, Collar",[2]; [10],0.011
same,"Fraction, Filter (cut size <0.40 μm)",[2]; [10],0.113
same,"Fraction, Stage 0 (cut size 9.00 μm, midpt 10.70 μm)",[2]; [10],0.011
same,"Fraction, Stage 1 (cut size 5.80 μm, midpt 7.22 μm)",[2]; [10],0.006
same,"Fraction, Stage 2 (cut size 4.70 μm, midpt 5.22 μm)",[2]; [10],0.007
same,"Fraction, Stage 3 (cut size 3.30 μm, midpt 3.94 μm)",[2]; [10],0.008
same,"Fraction, Stage 4 (cut size 2.10 μm, midpt 2.63 μm)",[2]; [10],0.077
same,"Fraction, Stage 6 (cut size 0.70 μm, midpt 0.88 μm)",[2]; [10],0.232
same,"Fraction, Stage 7 (cut size 0.40 μm, midpt 0.53 μm)",[2]; [10],0.192
same,"Fraction, Tee Piece",[2]; [10],0.024
same,"Fraction, Throat (USP) (cut size >9.00 μm, midpt 24.49 μm)",[2]; [10],0.001
same,"Fraction, Adapter",[2]; [11],0.027
same,"Fraction, Collar",[2]; [11],0.011
same,"Fraction, Filter (cut size <0.40 μm)",[2]; [11],0.088
same,"Fraction, Stage 0 (cut size 9.00 μm, midpt 10.70 μm)",[2]; [11],0.026
same,"Fraction, Stage 1 (cut size 5.80 μm, midpt 7.22 μm)",[2]; [11],0.047
same,"Fraction, Stage 2 (cut size 4.70 μm, midpt 5.22 μm)",[2]; [11],0.013
same,"Fraction, Stage 3 (cut size 3.30 μm, midpt 3.94 μm)",[2]; [11],0.029
same,"Fraction, Stage 4 (cut size 2.10 μm, midpt 2.63 μm)",[2]; [11],0.124
same,"Fraction, Stage 6 (cut size 0.70 μm, midpt 0.88 μm)",[2]; [11],0.184
same,"Fraction, Stage 7 (cut size 0.40 μm, midpt 0.53 μm)",[2]; [11],0.137
same,"Fraction, Tee Piece",[2]; [11],0.005
same,"Fraction, Throat (USP) (cut size >9.00 μm, midpt 24.49 μm)",[2]; [11],0.002
same,"Fraction, Adapter",[2]; [12],0.009
same,"Fraction, Collar",[2]; [12],0.012
same,"Fraction, Filter (cut size <0.40 μm)",[2]; [12],0.106
same,"Fraction, Stage 0 (cut size 9.00 μm, midpt 10.70 μm)",[2]; [12],0.011
same,"Fraction, Stage 1 (cut size 5.80 μm, midpt 7.22 μm)",[2]; [12],0.026
same,"Fraction, Stage 2 (cut size 4.70 μm, midpt 5.22 μm)",[2]; [12],0.006
same,"Fraction, Stage 3 (cut size 3.30 μm, midpt 3.94 μm)",[2]; [12],0.016
same,"Fraction, Stage 4 (cut size 2.10 μm, midpt 2.63 μm)",[2]; [12],0.066
same,"Fraction, Stage 6 (cut size 0.70 μm, midpt 0.88 μm)",[2]; [12],0.207
same,"Fraction, Stage 7 (cut size 0.40 μm, midpt 0.53 μm)",[2]; [12],0.211
same,"Fraction, Tee Piece",[2]; [12],0.016
same,"Fraction, Throat (USP) (cut size >9.00 μm, midpt 24.49 μm)",[2]; [12],0.001
same,differences in spirometry between heliox and oxygen albuterol nebulization,asthma patients,no differences in spirometry between heliox and oxygen albuterol nebulization were detected
